ChEMBL document CHEMBL2157998, “Synthesis and biological evaluation of new phenothiazine derivatives bearing a pyrazole unit as protein farnesyltransferase inhibitors” (Bioorg Med Chem Lett, 2012)
Activity calls are given as the source filed them. The calls are words filed in the database; no cut-off is given here.

Experiments:
[1] = molecular target: T1, Protein farnesyltransferase (Homo sapiens, UniProt P49354+P49356); assay: Inhibition of recombinant human FTase using dansyl-GCVLS as substrate at 100 uM after 15 mins by fluorimetric analysis; type: protein-complex assay
[2] = molecular target: T1, Protein farnesyltransferase; assay: Inhibition of recombinant human FTase using dansyl-GCVLS as substrate after 15 mins by fluorimetric analysis; type: protein-complex assay
[3] = test system: MOLT-4; assay: Growth inhibition of human MOLT4 cells at 10 uM after 48 hrs by single dose SRB assay; type: functional; conditions: MOLT-4, 48 h, read-out: GI
[4] = test system: LOX IMVI; assay: Growth inhibition of human LOXIMVI cells at 10 uM after 48 hrs by single dose SRB assay; type: functional
[5] = test system: U-251; assay: Growth inhibition of human U251 cells at 10 uM after 48 hrs by single dose SRB assay; type: functional; conditions: U-251, 48 h, read-out: GI
[6] = test system: SN12C; assay: Growth inhibition of human SN12C cells at 10 uM after 48 hrs by single dose SRB assay; type: functional; conditions: read-out: GI
[7] = test system: SK-MEL-5; assay: Growth inhibition of human SK-MEL-5 cells at 10 uM after 48 hrs by single dose SRB assay; type: functional
[8] = test system: SF-295; assay: Growth inhibition of human SF295 cells at 10 uM after 48 hrs by single dose SRB assay; type: functional
[9] = test system: ACHN; assay: Growth inhibition of human ACHN cells at 10 uM after 48 hrs by single dose SRB assay; type: functional
[10] = test system: RPMI-8226; assay: Growth inhibition of human RPMI8226 cells at 10 uM after 48 hrs by single dose SRB assay; type: functional
[11] = test system: OVCAR-3; assay: Growth inhibition of human OVCAR3 cells at 10 uM after 48 hrs by single dose SRB assay; type: functional
[12] = test system: CAKI-1; assay: Growth inhibition of human Caki1 cells at 10 uM after 48 hrs by single dose SRB assay; type: functional; conditions: CAKI-1, 48 h, read-out: GI
[13] = test system: HCT166; assay: (§1) Growth inhibition of human […] cells at 10 uM after 48 hrs by single dose SRB assay; type: functional
[14] = test system: UO-31; assay: Growth inhibition of human UO31 cells at 10 uM after 48 hrs by single dose SRB assay; type: functional; conditions: UO-31, 48 h, read-out: GI
[15] = test system: MDA-MB-231; assay: Growth inhibition of human MDA-MB-231 cells at 10 uM after 48 hrs by single dose SRB assay; type: functional
[16] = test system: HCT-15; assay: Growth inhibition of human HCT15 cells at 10 uM after 48 hrs by single dose SRB assay; type: functional
[17] = test system: NCI/ADR-RES; assay: Growth inhibition of human NCI/ADR-RES cells at 10 uM after 48 hrs by single dose SRB assay; type: functional
[18] = test system: PC-3; assay: Growth inhibition of human PC3 cells at 10 uM after 48 hrs by single dose SRB assay; type: functional; conditions: PC-3, 48 h, read-out: GI
[19] = test system: OVCAR-8; assay: Growth inhibition of human OVCAR8 cells at 10 uM after 48 hrs by single dose SRB assay; type: functional
[20] = test system: MDA-MB-468; assay: Growth inhibition of human MDA-MB-468 cells at 10 uM after 48 hrs by single dose SRB assay; type: functional
[21] = test system: HL-60(TB); assay: Growth inhibition of human HL-60(TB) cells at 10 uM after 48 hrs by single dose SRB assay; type: functional
[22] = test system: HOP-92; assay: Growth inhibition of human HOP92 cells at 10 uM after 48 hrs by single dose SRB assay; type: functional; conditions: HOP-92, 48 h, read-out: GI
[23] = test system: CCRF-CEM; assay: Growth inhibition of human CCRF-CEM cells at 10 uM after 48 hrs by single dose SRB assay; type: functional
[24] = test system: SW-620; assay: Growth inhibition of human SW620 cells at 10 uM after 48 hrs by single dose SRB assay; type: functional
[25] = test system: HT-29; assay: Growth inhibition of human HT-29 cells at 10 uM after 48 hrs by single dose SRB assay; type: functional
[26] = test system: NCI-H226; assay: Growth inhibition of human NCI-H226 cells at 10 uM after 48 hrs by single dose SRB assay; type: functional
[27] = test system: UACC-62; assay: Growth inhibition of human UACC62 cells at 10 uM after 48 hrs by single dose SRB assay; type: functional
[28] = test system: NCI-H522; assay: Growth inhibition of human NCI-H522 cells at 10 uM after 48 hrs by single dose SRB assay; type: functional
[29] = test system: SNB-19; assay: Growth inhibition of human SNB19 cells at 10 uM after 48 hrs by single dose SRB assay; type: functional
[30] = test system: EKVX; assay: Growth inhibition of human EKVX cells at 10 uM after 48 hrs by single dose SRB assay; type: functional
[31] = test system: A498; assay: Growth inhibition of human A498 cells at 10 uM after 48 hrs by single dose SRB assay; type: functional; conditions: A498, 48 h, read-out: GI
[32] = as §1; type: functional; conditions: read-out: GI

Compound: CCOC(=O)C1=NN(C(=O)CCN2c3ccccc3Sc3ccccc32)C(O)(c2ccccc2)C1 (centres undefined)
- inhibition [1]: 22.8%

Compound: Cc1c2c(nn1C(=O)CCN1c3ccccc3Sc3ccccc31)CCCC2=O
- inhibition [1]: 19.5%

Compound: C/C(=N\NC(=O)CCN1c2ccccc2Sc2ccccc21)C1=C(O)c2ccccc2C1=O
- inhibition [1]: 95.5%
- IC50 [2]: 3.73 µM

Compound: Cc1cc(-c2ccccc2)n(CC(=O)N2c3ccccc3Sc3ccccc32)n1
- inhibition [1]: 0%

Compound: Cc1c2c(nn1C(=O)CN1c3ccccc3Sc3ccccc31)CCCC2=O
- inhibition [1]: 0%

Compound: Cc1cc(-c2ccccc2)n(C(=O)CN2c3ccccc3Sc3ccccc32)n1
- inhibition of growth at 10 µM [3]: 9.6%
- growth inhibition (GI) [4]: inactive
- inhibition [1]: 0%
- inhibition of growth at 10 µM [5]: 9.2%
- inhibition of growth at 10 µM [6]: 7.2%
- growth inhibition (GI) [7]: inactive
- growth inhibition (GI) [8]: inactive
- growth inhibition (GI) [9]: inactive
- growth inhibition (GI) [10]: inactive
- growth inhibition (GI) [11]: inactive
- inhibition of growth at 10 µM [12]: 16.2%
- growth inhibition (GI) [13]: inactive
- inhibition of growth at 10 µM [14]: 9%
- growth inhibition (GI) [15]: inactive
- growth inhibition (GI) [16]: inactive
- growth inhibition (GI) [17]: inactive
- inhibition of growth at 10 µM [18]: 13%
- inhibition of growth at 10 µM ([19]; OVCAR-8, 48 h, read-out: GI): 6.3%
- growth inhibition (GI) [20]: inactive
- inhibition of growth at 10 µM ([21]; HL-60, 48 h, read-out: GI): 31.5%
- inhibition of growth at 10 µM [22]: 14%
- growth inhibition (GI) [23]: inactive
- growth inhibition (GI) [24]: inactive
- growth inhibition (GI) [25]: inactive
- inhibition of growth at 10 µM ([26]; NCI-H226, 48 h, read-out: GI): 7.2%
- growth inhibition (GI) [27]: inactive
- growth inhibition (GI) [28]: inactive
- growth inhibition (GI) [29]: inactive
- inhibition of growth at 10 µM ([30]; read-out: GI): 5%
- inhibition of growth at 10 µM [31]: 17.3%

Compound: Cc1c2c(nn1CC(=O)N1c3ccccc3Sc3ccccc31)CCCC2
- inhibition of growth at 10 µM [3]: 20.1%
- growth inhibition (GI) [4]: inactive
- inhibition [1]: 0%
- inhibition of growth at 10 µM [5]: 10.2%
- inhibition of growth at 10 µM [6]: 5.6%
- growth inhibition (GI) [7]: inactive
- growth inhibition (GI) [8]: inactive
- growth inhibition (GI) [9]: inactive
- inhibition of growth at 10 µM ([10]; RPMI-8226, 48 h, read-out: GI): 16.2%
- growth inhibition (GI) [11]: inactive
- inhibition of growth at 10 µM [12]: 8.1%
- inhibition of growth at 10 µM [32]: 8.4%
- inhibition of growth at 10 µM [14]: 10%
- growth inhibition (GI) [15]: inactive
- inhibition of growth at 10 µM ([16]; HCT-15, 48 h, read-out: GI): 8%
- inhibition of growth at 10 µM ([17]; read-out: GI): 6.2%
- growth inhibition (GI) [19]: inactive
- growth inhibition (GI) [20]: inactive
- growth inhibition (GI) [21]: inactive
- inhibition of growth at 10 µM ([23]; read-out: GI): 6.5%
- growth inhibition (GI) [24]: inactive
- growth inhibition (GI) [25]: inactive
- growth inhibition (GI) [26]: inactive
- inhibition of growth at 10 µM ([27]; UACC-62, 48 h, read-out: GI): 13.2%
- inhibition of growth at 10 µM ([28]; NCI-H522, 48 h, read-out: GI): 15.2%
- growth inhibition (GI) [29]: inactive
- growth inhibition (GI) [30]: inactive

Compound: CCOC(=O)C1=NN(C(=O)CN2c3ccccc3Sc3ccccc32)C(O)(c2ccccc2)C1 (centres undefined)
- inhibition [1]: 30.7%
